We go through two compounds from patent US12582706B2, “Tolerogenic antigen presenting cells” (Cell4Cure AB, priority 2019, dated 2026).

Assay [1] concerns DCs. Description: DC expression of CD86 (flow cytometry). Format: cell-based, human. Here is the method:
(§1) CD14^+ monocytes were cultured at 1.25×10^6 cells/mi for 7 days in GMP DC Medium (CellGenix, Freiburg, Germany) containing HEPES, GlutaMAX and Penicillin-Streptomycin solution (Thermo Fisher, Waltham, MA) in the presence of granulocyte-macrophage colony-stimulating factor (GM-CSF; 100 ng/ml; PeproTech, London, UK) and interleukin-4 (IL-4; 100 ng/ml; PeproTech). Cells were replenished on day 3 with fresh medium and cytokines. […]
(§2) Cell surface expression was investigated using the following fluorescently labeled antibodies: CD11c (B-Ly6), CD83 (HB15e), CD86 (BU63), ILT3 (ZM4.1), CD141 (M80), GARP (7611), CD103 (B-Ly7), MERTK (590H11G1E3), BTLA (J168-540), CD49b (P1E6-05), HLA-G (87G), LAP (FNLAP), from BD Biosciences (Franklin Lakes, NJ), BioLegend (San Diego, CA) and Thermo Fisher. DCs were washed and resuspended in staining buffer (phosphate-buffered saline supplemented with 0.5% BSA and 2 mM EDTA) and incubated with antibody for 20 min followed by washing before acquisition on a MACSQuant 10 flow cytometer (Miltenyi Biotec) and analyzed using FlowJo software (BD Biosciences). […]
A general note: Flow cytometry measures light scatter and fluorescence of single cells or particles in a stream.

For assay [2], the system named is DCs. Description: DC frequency of CD141^+GARP^+ cells (flow cytometry). The note with it: Example 13, FIG. 13(F); compared to control DCs. The format is cell-based, human. As to the method: as §1, §2
Assay [3] concerns T cells. The settings on record: Bakdash et al, 2015; cited from earlier work.
For assay [4], the system named is DCs. The assay is described as follows: DC expression of ILT3 (flow cytometry). Format: cell-based, human. The note with it: Example 13, FIG. 13(C); compared to control DCs. As to the method: as §1, §2
For assay [5], the system named is DCs. Description: DC expression of CD83 (flow cytometry). Format: cell-based, human. The settings on record: Example 13, FIG. 13(A); C1 10 nM, TGFbeta 10 ng/ml, RA 2 uM; compared to control DCs. Here is the method:
as §1, §2

Regarding `CC1=C(/C=C/C(C)=C/C=C/C(C)=C/C(=O)O)C(C)(C)CCC1` [RA, all-trans retinoic acid], in assay [1] (FIG. 2(B), whether or not stimulated with LPS, compared to corresponding control DCs), the “CD86 expression (MFI) on DCs” value is given as “no resistance to upregulate CD86”. The “frequency of GARP^+CD141^+ cells” value in assay [2] was “higher frequency of GARP^+CD141^+ cells”. In assay [3], the “differentiation of Treg cells” value is “enhance the differentiation of Foxp3^+ inducible as well as IL-10 producing Treg cells” and the “gut-homing specificity in T cells” value is given as “induce gut-homing specificity in T cells”. In addition, the “ILT3 expression (MFI) on DCs” value in assay [4] is recorded as “higher expression of ILT3”.

On to `CCN(C(=O)c1c(O)c2c(Cl)cccc2n(C)c1=O)c1ccccc1` [AhR agonist, N-ethyl-N-phenyl-5-chloro-1,2-dihydro-4-hydroxy-1-methyl-2-oxo-quinoline-3-carboxamide], for which, in assay [1] (Example 13, FIG. 13(B), compared to control DCs), the “CD86 expression (MFI) on DCs” value is listed as “lower expression”. In addition, the “CD83 expression (MFI) on DCs” value in assay [5] is “lower expression”.
